Reference: US20260034236A1, “NEW DRUG COMPLEX” (KOWA COMPANY, LTD., priority 2022, published 2026)
pIC50: −log10 of the molar value.

Key:
[1] = system: CD20 antigen-positive human B-cell lymphoma-derived Raji cells; test: Cytotoxic test (CellTiter-Glo), CD20 antigen-positive cells; format: cell-based; settings: high expression of CD20, cultured 4 days, read-out: IC50(nmol/L) Raji (High expression of CD20)
Method: (§1) CD20 antigen-positive human B-cell lymphoma-derived Raji cells or CD20 antigen-negative human T-lymphoblastic leukemia-derived MOLT-4 cells were adjusted to a cell concentration of 5.0×10^4 cells/mL with the RPMI1640 medium, and 50 μL each was added to the 96-well microplate for cell culture, then cultured overnight. On the next day, 50 μL of the evaluation specimen diluted with the RPMI medium was separately added to the microplate, and the cells were cultured for 4 days at 37° C. under 5% CO2. After the culturing, CellTiter-Glo™ Luminescent Cell Viability Assay (Promega Corporation) was added to the microplate, and the mixture was stirred and left to stand at room temperature for 10 minutes. The light emission amount was then measured with a plate reader (Molecular Devices, LLC.). The cell viability and IC50 value were calculated.

[2] = system: CD20 antigen-negative human T-lymphoblastic leukemia-derived MOLT-4 cells; test: Cytotoxic test (CellTiter-Glo), CD20 antigen-negative cells; format: cell-based; settings: cultured 4 days, read-out: IC50(nmol/L) MOLT-4 (CD20 negative)
Method: as §1

[3] = system: mouse colon cancer cell line C26; test: Drug efficacy test in C26 tumor-bearing nude mice; format: in vivo; settings: after 14 days from administration; tail vein, 3 times every other day; 8 mg/kg (3.9 mg/kg in terms of Pt)
Method: A tumor-bearing model obtained by subcutaneously transplanting a mouse colon cancer cell line C26 (American Type Culture Collection) into a female nude mouse (BALB/c-nu/nu, 7 weeks old; Charles River Laboratories Japan, Inc.) was used for a drug efficacy test.
A mouse colon cancer cell line C26 subcultured in a CO2 incubator was suspended in a liquid medium (Dulbecco's Modified Eagle's Medium-high glucose, Sigma-Aldrich Co. LLC), and injected subcutaneously in the back of nude mice so that the number of cells per mouse was 1×10^6/100 μL. Thereafter, the nude mice were raised for about 1 week, and administration of a drug was started when the average value of the tumor volume had grown to about 30 mm^3. A DACHPt-encapsulating SCNP (DACHPt-encapsulating SCNP prepared using the copolymer of Example 70) was administered into the tail vein (3 times every other day), and the antitumor effect was evaluated based on the tumor volume (4 to 5 mice per 1 group). As a comparison, an oxaliplatin solution (Comparative Example 1) was used, and it was administered in the same manner. The dose of each preparation was 8 mg/kg (3.9 mg/kg in terms of Pt) as the maximum administrable dose for the oxaliplatin solution, and 3 mg/kg in terms of Pt for the DACHPt-encapsulating SCNP. […]

Compound: rituximab [Comparative Example 4]
- pIC50 [1]: < 7.16
- pIC50 [2]: < 7.16

Compound: O=C1[O][Pt]2([NH][C@@H]3CCCC[C@H]3[NH]2)[O]C1=O [Comparative Example 1, oxaliplatin]
- T/C (ratio of the tumor volume of the drug administration group to that of the control group) [3]: 1.1
